Assay results published in patent US7323490B2, “Pyrrole compounds and uses thereof” (Ambit Biosciences Corporation, priority 2003, dated 2008).

Tests used:
[1] = tested on: focal cerebral infarcts (MCAo); assay: Body swing test, Tamura MCAo model; assay type: in vivo, rat; parameters: unit not given here; conditions: AVG
Text: Surgical Preparation. Middle Cerebral Artery Occlusion (MCAo), Tamura Model. Focal cerebral infarcts were made by permanent occlusion of the proximal right middle cerebral artery using a modification of the method of Tamura et al. […] The temporalis muscle was bisected and reflected through an incision made midway between the eye and the eardrum canal. The proximal MCA was exposed through a subtemporal craniectomy without removing the zygomatic arch and without transecting the facial nerve. […] Animals were euthanatized at various time periods after MCA occlusion and the brains are removed for histological analysis. Behavioral Analysis. Two behavioral tests were performed, the limb placing and body swing test. […] Body Swing Test. The animal was held approximately 1 inch from the base of its tail. It was then elevated to an inch above a surface of a table. The animal was held in the vertical axis, defined as no more than 10° to either the left or the right side. A swing was recorded whenever the animal moves its head out of the vertical axis to either side. Before attempting another swing, the animal must return to the vertical position for the next swing to be counted. Thirty total swings were counted. A normal animal typically has an equal number of swings to either side. Following focal stroke, the animal tends to swing to the contralateral side. There is a slow spontaneous recovery of body swing during the first month after stroke. Experimental Groups and Compound Administration. A total of 80 animals underwent MCAo using subcutaneous administration of all test articles, according to the experimental design illustrated in Table 16. […] All animals were treated with the compound(s)/vehicle(s) as a blinded random investigation. The dose and route of administration is given below in Table 16.

[2] = tested on: focal cerebral infarcts (MCAo); assay: Hindlimb placing test, Tamura MCAo model; assay type: in vivo, rat; conditions: AVG, 0=normal, 6=maximally impaired
Text: (§1) Surgical Preparation. Middle Cerebral Artery Occlusion (MCAo), Tamura Model. Focal cerebral infarcts were made by permanent occlusion of the proximal right middle cerebral artery using a modification of the method of Tamura et al. […] The temporalis muscle was bisected and reflected through an incision made midway between the eye and the eardrum canal. The proximal MCA was exposed through a subtemporal craniectomy without removing the zygomatic arch and without transecting the facial nerve. […] Animals were euthanatized at various time periods after MCA occlusion and the brains are removed for histological analysis. Behavioral Analysis. Two behavioral tests were performed, the limb placing and body swing test. […] Limb Placing. The limb placing tests were divided into both forelimb and hindlimb tests. For the forelimb-placing test, the examiner held the rat close to a tabletop and scored the rat's ability to place the forelimb on the tabletop in response to whisker, visual, tactile, or proprioceptive stimulation. Similarly, for the hindlimb placing test, the examiner assessed the rat's ability to place the hindlimb on the tabletop in response to tactile and proprioceptive stimulation. […] Typically, there was a slow and steady recovery of limb placing behavior during the first month after stroke. Experimental Groups and Compound Administration. A total of 80 animals underwent MCAo using subcutaneous administration of all test articles, according to the experimental design illustrated in Table 16. […] All animals were treated with the compound(s)/vehicle(s) as a blinded random investigation. The dose and route of administration is given below in Table 16.

[3] = tested on: focal cerebral infarcts (MCAo); assay: Forelimb placing test, Tamura MCAo model; assay type: in vivo, rat; conditions: AVG, 0=normal, 10=maximally impaired
Text: as §1

PDE6D = PDE6D (Homo sapiens, UniProt O43924); assay: T7 phage display competition binding assay (immobilized atorvastatin), PDE6D; parameters: made in house; host or cells: T7 phage amplified in E. coli; conditions: soluble competitor vs atorvastatin-coated affinity matrix; T7 phage displaying human PDE6D
Text: The T7 phage displaying human PDE6D and CLB2 were obtained following the procedure of WO 01/18234, published Mar. 15, 2001, and U.S. patent applications Ser. No. 10/115,442, “Phage Display Affinity Filter and Forward Screen,” filed Apr. 2, 2002 and Ser. No. 10/214,654, “Uncoupling DNA Insert Propagation and Protein Display,” filed Aug. 7, 2002. […] The phage eluate was then amplified by growth in E. coli and the affinity enrichment procedure was repeated.
The dissociation constants, Kd's, for the interaction between the pyrrole compounds and the novel targets were obtained following the procedure of the co-pending patent applications U.S. Ser. Nos. 10/115,442, “Phage Display Affinity Filter and Forward Screen,” filed Apr. 2, 2002 and 60/480,587, “Protein Family Profiling Tool and Methods,” filed Jun. 20, 2003.

[4] = administered six hours after MCAo
[5] = administered three hours after MCAo

| SMILES | Body swing test score, D0 [1, 4] | Body swing test score, D1 [1, 4] | Body swing test score, D3 [1, 4] | Body swing test score, D7 [1, 4] | Body swing test score, D0 [1, 5] | Body swing test score, D1 [1, 5] | Body swing test score, D3 [1, 5] | Body swing test score, D7 [1, 5] | Hindlimb placing test score, D0 [2, 4] | Hindlimb placing test score, D1 [2, 4] | Hindlimb placing test score, D3 [2, 4] | Hindlimb placing test score, D7 [2, 4] | Hindlimb placing test score, D0 [2, 5] | Hindlimb placing test score, D1 [2, 5] | Hindlimb placing test score, D3 [2, 5] | Hindlimb placing test score, D7 [2, 5] | Forelimb placing test score, D0 [3, 4] | Forelimb placing test score, D1 [3, 4] | Forelimb placing test score, D3 [3, 4] | Forelimb placing test score, D7 [3, 4] | further results |
| --- | --- | --- | --- | --- | --- | --- | --- | --- | --- | --- | --- | --- | --- | --- | --- | --- | --- | --- | --- | --- | --- |
| CC(C)c1c(C(=O)Nc2ccccc2)c(-c2ccccc2)c(-c2ccc(F)cc2)n1CC[C@@H](O)C[C@@H](O)CC(=O)O [atorvastatin, reference compound] | 50 | 19 | 17 | 19 | 50 | 13 | 28 | 41 | 0 | 5.9 | 4.9 | 3.5 | 0 | 5.6 | 4.3 | 2.8 | 0 | 8.8 | 8.8 | 8 | Forelimb placing test score, D0 [3, 5]: 0; Forelimb placing test score, D1 [3, 5]: 9.2; Forelimb placing test score, D3 [3, 5]: 7.3; Forelimb placing test score, D7 [3, 5]: 5.6 |
| CC(C)c1[nH]c(-c2ccc(F)cc2)c(-c2ccccc2)c1C(=O)Nc1ccccc1 [Compound 781430] | 50 | 19 | 22 | 23 | 50 | 31 | 43 | 44 | 0 | 5.3 | 3.5 | 3 | 0 | 4.1 | 2.8 | 2.1 | 0 | 8.9 | 8.5 | 6 | Forelimb placing test score, D0 [3, 5]: 0; Forelimb placing test score, D1 [3, 5]: 8.9; Forelimb placing test score, D3 [3, 5]: 7.6; Forelimb placing test score, D7 [3, 5]: 4.3; Kd (PDE6D): 75 nM |
| CC(C)c1c(C(=O)Nc2ccccc2)c(-c2ccccc2)c(-c2ccc(F)cc2)n1CC(O)C(O)C(O)C(O)CO (centres unmarked) [Compound 782236] | 50 | 7 | 9 | 23 | 50 | 8 | 27 | 37 | 0 | 4.7 | 4 | 3.3 | 0 | 4.6 | 4 | 3.2 | 0 | 9.2 | 8.9 | 7 | Forelimb placing test score, D0 [3, 5]: 0; Forelimb placing test score, D1 [3, 5]: 8.4; Forelimb placing test score, D3 [3, 5]: 6.7; Forelimb placing test score, D7 [3, 5]: 5.9; Kd (PDE6D): 269 nM |
